Test results taken from patent publication US6387881B1, “Inhibitors and substrates of thrombin” (priority 1992, dated 2002).
Several values for one entry are separate records, joined by “and”; a condition that tells them apart may be missing. Identical values can stand only once. Like-named read-outs stand apart in the source and are kept apart here.

Assays:
[1] = IC50 with and without incubation (enzyme not given); type: biochemical
human α-thrombin = human α-thrombin (Homo sapiens, UniProt P00734); assay: biochemical; type: biochemical; conditions: read-out: Ki
Procedure: The inhibition of human α-thrombin was determined by the inhibition of the enzyme catalyzed hydrolysis of three different concentrations of the chromogenic substrate S-2238.
200 μl of sample or buffer and 50 μl of S-2238 were incubated at 37° C. for 1 min and 50 μl of human α-thrombin (0.25 NIHu/ml) was added. The initial rate of inhibited and uninhibited reactions were recorded at 405 nm. The increase in optical density was plotted according to the method of Lineweaver and Burke. The Km and apparent Km were determined and Ki was calculated using the relationship: [formula]

Kalhikrein = assay: IC50 against kallikrein; type: biochemical; conditions: single value given, incubation not given; read-out: Kalhikrein no inc/inc
[2] = Peripheral blood pressure after intravenous dose; type: in vivo, New Zealand white rabbits
From the text: […] R. May, C. M. Hero, K. D. Butler, C. P. Page, JOURNAL OF PHARMACOLOGICAL METHODS, 24, pp 1-35, 1990. Peripheral blood pressure was monitored by a pressure sensor in the carotid artery.

Xa = target: T1, Xa (Homo sapiens, UniProt P00742); assay: IC50 against Xa; type: biochemical; conditions: single value given, incubation not given; read-out: Xa no inc/inc
T1 construct: Plasmin; Xa; Urokinase

Urokinase = Urokinase (Homo sapiens, UniProt P00749); assay: IC50 against urokinase; type: biochemical; conditions: single value given, incubation not given; read-out: Urokinase no inc/inc
Plasmin = Plasmin (Homo sapiens, UniProt P00747); assay: IC50 against plasmin; type: biochemical; conditions: single value given, incubation not given; read-out: Plasmin no inc/inc
[3] = test system: 111indium-labelled platelets; assay: Deposition of 111indium-labelled platelets after intravenous dose; type: in vivo, New Zealand white rabbits
From the text: M. Hero, K. D. Butler, C. […] Peripheral blood pressure was monitored by a pressure sensor in the carotid artery.

[4] = test system: bovine thrombin in plasma samples; assay: Ex-vivo TT; type: in vivo, New Zealand white rabbits; design: key: thrombin (coagulation) time in seconds; conditions: 1 mg/kg i.v. bolus, rabbit
Procedure: A volume of 150 μl of citrated normal human plasma and 20 μl of buffer or sample were warmed at 37° C. for 1 min. Coagulation was started by adding 150 ul of freshly prepared bovine thrombin (5 NIHu/ml saline) and the coagulation time was recorded on a coagulometer.
A phosphate buffer, pH 7.8, containing 0.1% bovine serum albumine and 0.02% sodium azide was used. The samples were dissolved in DMSO and diluted with the buffer. When no inhibitor was used DMSO was added to the buffer to the same concentration as that used in the samples. The inhibitor concentrations were plotted against the thrombin times in a semilogarithmic graph from which the inhibitor concentration that caused a doubling (40 sec) of the thrombin time was determined.
(§1) Data was obtained as for in-vitro tests, but using plasma samples obtained at 0, 1, 10, 30 and 60 minutes after dosing of 1 mg/kg, i.v. bolus injection in a marginal ear vein in New Zealand white rabbits, which were anaesthetized from a canula in the carotid artery. [drawing 18]

plasma samples = assay: Ex-vivo APTT; type: in vivo, New Zealand white rabbits; design: unit not given here; conditions: 1 mg/kg i.v. bolus, rabbit
Procedure: A volume of 150 μl of citrated (3.2%) normal human plasma was incubated at 37° C. with sample (20 μl) or buffer (20 μl, control) for 1 min. To the solution was added reconstituted “AUTOMATED APTT” (available from Organon Teknika, 0.1 ml). Each solution was activated at 37° C. for 5 min.
After activation, calcium chloride (0.1 ml, 0.025M, prewarmed at 37° C.) was added and clot detection was timed using a “semiautomated coagulometer” (Nach, Schnicter und Gross).
as §1

[5] = no incubation, read-out: IC50 No Incubations
[6] = with incubation, read-out: IC50 Inc.
[7] = human α-thrombin, S-2238, 37° C.

T1 sequence (P00742 41-179 limits assumed): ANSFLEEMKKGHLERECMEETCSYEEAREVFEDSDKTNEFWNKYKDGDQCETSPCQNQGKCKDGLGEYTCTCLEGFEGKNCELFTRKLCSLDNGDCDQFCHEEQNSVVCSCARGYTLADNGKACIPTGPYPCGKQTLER
T1 sequence (P00742 235-488 limits assumed): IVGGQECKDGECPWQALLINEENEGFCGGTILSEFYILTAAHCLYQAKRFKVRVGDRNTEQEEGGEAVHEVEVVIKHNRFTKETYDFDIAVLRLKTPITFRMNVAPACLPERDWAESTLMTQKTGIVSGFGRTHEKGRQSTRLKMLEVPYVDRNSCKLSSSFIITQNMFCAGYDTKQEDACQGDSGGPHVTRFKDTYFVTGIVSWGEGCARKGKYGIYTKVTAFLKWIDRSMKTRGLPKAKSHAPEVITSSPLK
Plasmin, sequence (P00747 97-580 limits assumed, species assumed): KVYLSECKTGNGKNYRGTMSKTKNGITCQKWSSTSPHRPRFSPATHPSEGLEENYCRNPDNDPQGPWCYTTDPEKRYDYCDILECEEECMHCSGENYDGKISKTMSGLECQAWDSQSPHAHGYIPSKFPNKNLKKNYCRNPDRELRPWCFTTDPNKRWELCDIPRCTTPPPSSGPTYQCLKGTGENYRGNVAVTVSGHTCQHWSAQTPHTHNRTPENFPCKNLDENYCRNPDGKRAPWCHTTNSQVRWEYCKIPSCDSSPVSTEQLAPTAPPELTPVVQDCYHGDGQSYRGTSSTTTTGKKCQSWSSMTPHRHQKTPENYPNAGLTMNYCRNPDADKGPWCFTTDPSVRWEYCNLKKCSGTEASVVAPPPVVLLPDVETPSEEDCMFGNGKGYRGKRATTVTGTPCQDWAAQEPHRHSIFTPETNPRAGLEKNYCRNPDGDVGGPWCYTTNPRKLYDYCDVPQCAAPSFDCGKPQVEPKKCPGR
Plasmin, sequence (P00747 581-810 limits assumed, species assumed): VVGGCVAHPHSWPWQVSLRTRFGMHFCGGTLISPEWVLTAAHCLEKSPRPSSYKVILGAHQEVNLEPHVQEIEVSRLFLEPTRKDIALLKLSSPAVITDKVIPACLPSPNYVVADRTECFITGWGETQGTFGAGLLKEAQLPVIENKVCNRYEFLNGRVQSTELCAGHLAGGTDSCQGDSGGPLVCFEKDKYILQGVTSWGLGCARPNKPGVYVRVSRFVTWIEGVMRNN

Row | SMILES | IC50 [1, 5] [µM] | IC50 [1, 6] [µM] | Ki (human α-thrombin; [7]) [µM] | IC50 (Kalhikrein) [µM] | BLOOD PRESSURE Δ% of NORM ([2]; 4 mg/kg iv. dose) | IC50 (Xa) [µM] | IC50 (Urokinase) [µM] | IC50 (Plasmin) [µM] | PLATELET ACCUMULATION (% OF NORMAL) LEG ([3]; 4 mg/kg iv. dose) | PLATELET ACCUMULATION (% OF NORMAL) LUNG ([3]; 4 mg/kg iv. dose) | other results
1 | CCCCCC(NC(=O)[C@@H]1CCCN1C(=O)[C@H](N)C(c1ccccc1)c1ccccc1)P(=O)(Oc1ccccc1)Oc1ccccc1 (stereo partly drawn) [Compound 23, D-Dpa-Pro-Pgl^P(OPh)2] | 0.187 | 0.000938 | 0.48 |  |  |  |  |  |  |  | 
2 | CC1(C)OB(C(Cc2ccccc2)NC(=O)C2CCCN2C(=O)C(Cc2ccccc2)NC(=O)OCc2ccccc2)OC1(C)C [Compound 41, Z-D-Phe-Pro-BoroPhe-OPinac] | 0.0128 |  |  | 16.7 | 21% Δ% of NORM | 7.94 | 6.67 | 37.3 | NONE | NONE | 
3 | CC(C)(C)OC(=O)NC(Cc1ccccc1)C(=O)N1CCCC1C(=O)NC(C=O)Cc1cnc[nH]1 [Compound 53, Boc-D-Phe-Pro-His-H] |  |  |  | > 413 | 0 Δ% of NORM | > 413 | > 413 | > 413 | NONE | NONE | BLOOD PRESSURE Δ% of NORM ([2]; 1 mg/kg i.v. dose): NONE; EX-VIVO T.T. ([4]; time 0 min): 26 and 27 and 24 and 24.9; EX-VIVO T.T. ([4]; time 1 min): 86.9 and 83.5 and 80.9 and 74; EX-VIVO T.T. ([4]; time 10 min): 32 and 30 and 29.9; EX-VIVO T.T. ([4]; time 30 min): 24.4 and 25 and 25.9 and 25.4; EX-VIVO T.T. ([4]; time 60 min): 24.4 and 23.9 and 22.9; PLATELET ACCUMULATION (% OF NORMAL) LEG ([3]; 1 mg/kg i.v. dose): NONE; PLATELET ACCUMULATION (% OF NORMAL) LUNG ([3]; 1 mg/kg i.v. dose): NONE; EX-VIVO A.P.T.T. (plasma samples; time 0 min): 32.9 and 24.9; EX-VIVO A.P.T.T. (plasma samples; time 1 min): 41.5 and 27.9 and 30.9; EX-VIVO A.P.T.T. (plasma samples; time 10 min): 39.9 and 29.9 and 26 and 25.9; EX-VIVO A.P.T.T. (plasma samples; time 30 min): 31.4 and 30.4 and 25.4 and 26.1; EX-VIVO A.P.T.T. (plasma samples; time 60 min): 28.9 and 27.5 and 25.9
4 | NC(C(=O)N1CCCC1C(=O)NC(c1ccccc1)P(=O)(O)O)C(c1ccccc1)c1ccccc1 [Compound 16, D,L-Dpa-Pro-Pgl^P(OH)2] | 5.16 | 0.0817 | 0.223 |  |  |  |  |  |  |  | 
5 | CCC(C)CC(NC(=O)[C@@H]1CCCN1C(=O)[C@@H](Cc1ccccc1)NC(=O)OCc1ccccc1)B1OC2CC3CC(C3(C)C)C2(C)O1 (stereo partly drawn) [Compound 22, Z-D-Phe-Pro-BoroMbg-OPin] | 0.007 |  |  | 12.9 | 0 Δ% of NORM | 3.86 | 9.13 | 11.5 | 11%, TRANSIENT % OF NORMAL | NONE | 
6 | CC1(C)C2CC3OB(C(CCCSC(=N)N)NC(=O)C4CCCN4C(=O)C(Cc4ccccc4)NC(=O)OCc4ccccc4)OC3(C)C1C2 [Compound 25, Z-D-Phe-Pro-BoroIrg-OPin] | 1.5 | 0.068 |  | 0.334 | 100% Δ% of NORM | 0.0141 | 0.075 | 0.0084 |  |  | BLOOD PRESSURE Δ% of NORM ([2]; 1 mg/kg i.v. dose): SMALL
7 | COCCCC(NC(=O)C1CCCN1C(=O)C(Cc1ccccc1)NC(=O)OCc1ccccc1)B1OC2CC3CC(C3(C)C)C2(C)O1 [Compound 50, Z-D-Phe-Pro-BoroMpg-OPin] | 0.0007 |  |  | 7.26 |  | 1.72 | 3.63 | 3.23 |  |  | 
8 | CCCCCC(NC(=O)[C@@H]1CCCN1C(=O)[C@@H](Cc1ccccc1)NC(=O)OCc1ccccc1)B1OC(C)(C)C(C)(C)O1 (stereo partly drawn) [Compound 11, Z-D-Phe-Pro-BoroPgl-OPinac] |  |  |  |  |  |  |  |  |  |  | EX-VIVO T.T. ([4]; time 0 min): 30 and 24.5 and 26; EX-VIVO T.T. ([4]; time 1 min): >300 and >200; EX-VIVO T.T. ([4]; time 10 min): >300 and >200; EX-VIVO A.P.T.T. (plasma samples; time 0 min): 46.5 and 26.4; EX-VIVO A.P.T.T. (plasma samples; time 60 min): 53.0 and 38.4
9 | CCCCCC(NC(=O)[C@@H]1CCCN1C(=O)[C@H](N)Cc1ccccc1)P(=O)(O)O (stereo partly drawn) [Compound 21, D-Phe-Pro-Pgl^P(OH)2] | > 137 | 4.35 |  |  |  |  |  |  |  |  | Ki (human α-thrombin): > 98 µM
10 | O=C(NC(C(=O)N1CCCC1C(=O)NC(c1ccccc1)P(=O)(Oc1ccccc1)Oc1ccccc1)C(c1ccccc1)c1ccccc1)OCc1ccccc1 [Compound 17, Z-D-Dpa-Pro-Pgl^P(OPh)2] |  |  | 8.46 |  |  |  |  |  |  |  | 
